Data as given in patent US20130012506A1 (priority 2010, published 2013).

Experiments:
[1] = system: M. tuberculosis H37Rv; assay type: cell-based, Mycobacterium tuberculosis
[2] = system: M. tuberculosis clinical isolates; assay type: cell-based, Mycobacterium tuberculosis; details: multi-drug-resistant and extensive-drug-resistant isolates

NNC(=O)c1ccncc1 [INH, isoniazid]
Frequency of resistance [1]: 2.9×10^−6

Cc1cccn2c(=O)c(C=O)c(Nc3cccc(Cl)c3)nc12 [compound 133, 2-(3-Chlorophenylamino)-9-methyl-4-oxo-4H-pyrido[1,2-a]pyrimidine-3-carbaldehyde]
MIC values for MDR-TB and XDR-TB isolates strains [2]: within the micromolar range

O=c1c(CO)c(Nc2cccc(Cl)c2)nc2c(F)cccn12 [compound 264, 2-(3-Chlorophenylamino)-9-fluoro-3-(hydroxymethyl)-4H-pyrido[1,2-a]pyrimidin-4-one]
spontaneous mutational rate [1]: 7×10^−7
